Experimental data from patent publication US20070154393A1, “Bioassay for volatile low molecular weight insecticides and methods of use” (priority 2005, published 2007).
Where two headings read alike, the source gives them in different places.

What was measured:
[1] = tested on: insecticide-susceptible Drosophila melanogaster (Canton-S strain); format: in vivo; settings: for Slope ± Std. Error (best-fit probit mortality line): Table 1, 24 hr exposure, probit analysis; for Slope ± Std. Error (best-fit probit mortality line) / Slope ± Std. Error (probit mortality line): Canton-S; for Slope ± Std. Error (probit mortality line): 24 hr
Description: The insecticide-susceptible Canton-S strain of Drosophila was obtained from the Bloomington Drosophila stock center (Indiana University, Bloomington, Ind.), and used exclusively in all studies. Flies were reared in 100-ml vials capped with acetate plugs (Fisher Scientific; Suwannee, Ga.) on a JAZZ-MIX diet (Fisher) prepared with a 2:1 ratio of water to apple juice. Flies were reared on a 12:12 photocycle at 24° C. and ambient relative humidity. Mixed-sex adults, less than 1-wk old, were used in bioassays.
Flies were briefly anesthetized in rearing vials with a pulse of CO2 and transferred to a CO2 flowbed (Genesee Scientific; San Diego, Calif.). Using a camel hair brush and a 5×5 cm sheet of rice paper, ten flies were placed into 7.0 ml dram vials. Prior to adding flies, each vial received a 0.5 cm^3 block of rearing diet that had been sufficiently dried on a paper towel to remove excessive moisture. The vials were then capped with open-top septum caps (Fisher) that were covered with fine mesh. The mesh was applied to the septum caps in advance using hot glue; it prevented fly escape but readily permitted gas exchange. The flies were allowed 1-hr to recover from the CO2 anesthesia. After one hour, single vials with flies were placed into 0.5 L glass jars, along with a filter paper tent (see FIG. 1). In a fume hood, filter paper tents were treated with insecticide dilutions or acetone for controls. The jars were then rapidly closed tightly with a metal lid. After 24 hours of exposure, mortality was scored with the aid of a magnifying glass.
All test compounds and solvents were >99% purity, and were purchased from Sigma-Aldrich Chemical (Milwaukee, Wis.). See Table 1 for a listing of the test compounds and their structures. Insecticide stock solutions were prepared at a standard concentration of 100 μg/μl in analytical grade acetone. For liquid insecticidal compounds, density in mg/μl was used to calculate weight on a per-volume basis. Stock solutions were held at −20° C. in sealed amber vials. In bioassay jars, filter paper tents were treated with stock volumes ranging from 2 to 20 μl, depending on the inherent toxicity of the test compound. These volumes of insecticide stock provided test concentrations of 200 to 2000 μg insecticide per replicate jar. A range of 4-5 concentrations plus a control were tested for each insecticide, and each range was repeated five times over at least three days. Controls received a volume of acetone identical to the highest insecticide volume that was tested (i.e., 10 μl for menthofuran; 20 μl for all other insecticides). Between uses, bioassay jars and lids were washed in a dishwasher, then baked 12-16 hr at 90° C. in a drying oven.
Probit and regression analyses were performed using the PROC PROBIT and PROC REG procedures, respectively. […] If control mortality ever exceeded 10% in a given replicate, that replicate was discarded.
(§1) Four Drosophila strains were used, all obtained from the Bloomington Drosophila Stock Center (Indiana University; Bloomington, Ind.). The Canton-S strain was used as the insecticide-susceptible standard. The Hikone-R strain is metabolically-resistant with elevated cytochrome P450 levels (Waters et al., 1984; Sundseth et al., 1989; Le Goff et al., 2003; Festucci-Buselli et al., 2005). Hikone-R is resistant to a number of insecticides, including malathion, DDT and neonicotinoids (Sundseth et al., 1989; Daborn et al., 2001). Two resistant neurological-mutant strains were also tested. […] Flies were reared in 100-ml vials capped with acetate plugs (Fisher Scientific; Suwanee, Ga.) on a commercial diet (JAZZ-MIX; Fisher Scientific). Flies were reared on a 12:12 photocycle at 24° C. and 60% relative humidity. Mixed-sex adults, less than 1-wk old, were used in bioassays.

[2] = tested on: insecticide-susceptible Canton-S strain of Drosophila; format: in vivo; settings: for Slope ± Std. Error (probit mortality line): Table 3, Canton-S, 24 hr
Description: (§2) All experimental materials were purchased from Sigma-Aldrich-Fluka (Milwaukee, Wis.) and were of 99% purity or greater. […] All volatile insecticide stocks were prepared at 100 μg/μl in analytical grade acetone. Rather than weigh the highly volatile liquid insecticides (i.e., all compounds except benzothiophene), weight was determined based on the density-volume relationship of each compound. Four serial dilutions were prepared and tested for each insecticide as described previously (Scharf et al., 2006). The insecticide synergists PBO (piperonyl butoxide) and DEF (SSS-tributyl-phosphoro-trithioate) were obtained from Fluka Chemical Co. (Basel, Switzerland) and Mobay Chemical Co. (Kansas City, Mo.). Both synergists were >95% purity. Synergist stocks were prepared at 100 μg/ml in analytical grade acetone.
(§3) Volatility bioassays were conducted exactly as described in a previous report (Scharf et al., 2006). Briefly, bioassays took place in 0.5-l glass jars with metal lids. Mixed-sex flies were isolated from lab colonies and placed in 4-ml dram vials in groups of ten, along with a dried piece of laboratory diet. The dram vials were capped with open-top septum caps that were covered with fine mesh (held in place by non-toxic glue). For bioassays, the assembled dram vials were placed into the 0.5-l jars along with a folded filter paper “tent” (Whatman #1; Vineland, N.J.). The filter paper was treated with either an insecticide dilution or acetone, the jar was sealed with the metal lid, and the bioassay proceeded for 24-hr at room temperature. Mortality was scored based on a complete lack of movement by the flies. Four concentrations plus an acetone control were tested for all insecticides. Between five and ten replicates were performed for each concentration range on each strain-insecticide combination. Synergist bioassays were performed with a slight modification. Synergist stocks were applied to dram vials at 100 μl per vial to provide assay concentrations of 10 μg per vial. […] After treatment, vials were held at an angle in a fume hood and rotated ¼-turn each minute until the acetone evaporated. Flies and diet were added as above and held for 1-hr. Assays were initiated, run, and scored as above.
(§4) Probit analysis was performed using PROC PROBIT in the SAS software package (SAS Institute; Cary, N.C.). If control mortality ever exceeded 10% in a given replicate, that replicate was discarded. Toxicity and synergist ratios at LC50 were compared statistically using the calculation described by Robertson and Preisler (1992). Using this procedure, ratios with 95% confidence intervals were calculated using a spreadsheet-based program. With this calculation, if confidence intervals include 1.0 then ratios are considered non-significant (p>0.05; Robertson and Preisler, 1992).

[3] = tested on: metabolically resistant Hikone-R strain of Drosophila; format: in vivo; settings: Table 3, Hikone-R, 24 hr
Description: as §2, §3, §4

[4] = tested on: Rd1 (Rdl-R) strain of Drosophila (GABA-gated chloride channel point mutation); format: in vivo, Drosophila melanogaster; settings: Table 2; Rdl-R, 24 hr
Text: as §1, §2, §3, §4

[5] = Table 2, data taken from Scharf et al. (2006)

methyl formate
Slope ± Std. Error (best-fit probit mortality line) [1]: 3.27 ± 0.95 | Slope ± Std. Error (probit mortality line) [1, 5]: 3.27 ± 0.95 | Slope ± Std. Error (probit mortality line) ([1]; Table 3, no synergist): 3.27 ± 0.95 | Slope ± Std. Error (probit mortality line) ([2]; +DEF 10 μg per bioassay vial): 3.98 ± 1.52 | Slope ± Std. Error (probit mortality line) ([2]; +PBO 10 μg per bioassay vial): 49.50 | Slope ± Std. Error (probit mortality line) ([3]; +DEF 10 μg per bioassay vial): 1.91 ± 0.60 | Slope ± Std. Error (probit mortality line) ([3]; +PBO 10 μg per bioassay vial): 51.10 | Slope ± Std. Error (probit mortality line) [4]: 9.41 ± 2.14

ethyl formate
Slope ± Std. Error (best-fit probit mortality line) [1]: 5.18 ± 1.07 | Slope ± Std. Error (probit mortality line) [1, 5]: 5.18 ± 1.07 | Slope ± Std. Error (probit mortality line) ([1]; Table 3, no synergist): 5.18 ± 1.07 | LC50 (95% CL) ([1]; in vivo): 1656.0 (1486.0 − 1917.0) μg/jar | Slope ± Std. Error (probit mortality line) ([2]; +DEF 10 μg per bioassay vial): 1.73 ± 1.35 | Slope ± Std. Error (probit mortality line) ([2]; +PBO 10 μg per bioassay vial): 4.74 ± 1.44 | DEF synergism ratio (LC50 with synergist÷LC50 without) ([2]; esterase inhibitor DEF, reduction in toxicity, strain not given, fits Canton-S of Table 3): > 12 fold | Slope ± Std. Error (probit mortality line) ([3]; +DEF 10 μg per bioassay vial): 14.17 ± 1.80 | Slope ± Std. Error (probit mortality line) ([3]; +PBO 10 μg per bioassay vial): 5.17 ± 1.28 | Slope ± Std. Error (probit mortality line) [4]: 6.38 ± 1.91
